Laboratory results published in paper PMC5424254, “Growth Trade-Offs Accompany the Emergence of Glycolytic Metabolism in Shewanella oneidensis MR-1” (Journal of Bacteriology, 2017).

Biological target: T1, NagK (GlcNAc kinase) (Shewanella oneidensis, UniProt Q8EBK6)
T1 sequence (Q8EBK6 2-300): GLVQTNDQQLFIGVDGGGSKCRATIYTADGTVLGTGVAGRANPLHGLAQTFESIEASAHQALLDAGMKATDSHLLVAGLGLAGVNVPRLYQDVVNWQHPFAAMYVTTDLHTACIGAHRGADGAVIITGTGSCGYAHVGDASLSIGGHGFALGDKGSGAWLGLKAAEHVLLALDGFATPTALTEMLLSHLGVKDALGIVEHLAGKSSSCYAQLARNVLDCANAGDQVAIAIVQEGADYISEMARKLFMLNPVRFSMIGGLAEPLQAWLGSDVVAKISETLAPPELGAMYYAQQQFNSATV
Assay: ADP-Glo kinase assay (luminescence)
Assay type: biochemical
Conditions: ATP; 40 mM Tris-HCl, 20 mM MgCl2, 0.1 mg/ml BSA; 0.1 to 1 mM substrate

CC(=O)N[C@H]1C(O)O[C@H](CO)[C@@H](O)[C@@H]1O (stereo partly shown) [GlcNAc, N-acetylglucosamine]
ADP-Glo kinase assay (luminescence): NagK is able to phosphorylate glucose in addition to its known substrate, GlcNAc
